The values below come from publication PMC3711284, “Anti-antimicrobial Peptides” (The Journal of Biological Chemistry, 2013).

Like-named read-outs stand apart in the source and are kept apart here. Where no end group is shown, it is not given here.

Data set [1] relates to P. aeruginosa. Briefly: Gram stain assay after overnight incubation with peptide. Format: cell-based, Pseudomonas aeruginosa. As to conditions: incubated with peptide for 16 h, optical microscopy; anti-cBt:cBt 10:1 (100:10 μM). The method, then:
(§1) 20 μl of a bacterium culture was dispensed onto a glass slide and spread well. The slide was swiftly passed through a Bunsen flame to dry and fix cells before staining. The fixed bacteria were first covered in crystal violet (0.25%) for 30 s followed by washing with water (distilled, filtered 0.22 μm) until all of the excess stain was washed off, and then with iodine (1.0%) for 2 min before washing with a minimum amount of acetone needed to rinse off the iodine color. The cells were counterstained with safranin (0.5%) for 30 s, washed with water, and dried by a Bunsen flame. The obtained slides were viewed under a Leica DMLB fluorescent microscope. The images were obtained at ×100 magnification under oil and analyzed by ImageJ.

Data set [2] has as its system human erythrocytes. Briefly: Hemolysis assay. Format: cell-based. The method, then: Hemolysis was determined by incubating 10% (v/v) suspension of human erythrocytes with peptides. Erythrocytes were rinsed four times in 10 mM PBS, pH 7.2, by repeated centrifugation and resuspension (3 min at 3000 × g). Erythrocytes were incubated at room temperature for 1 h in either deionized water (fully hemolysed control), PBS, or with peptide in PBS. After centrifugation at 10,000 × g for 5 min, the supernatant was separated from the pellet and the absorbance measured at 550 nm. Absorbance of the suspension treated with deionized water defined complete hemolysis. The values below correspond to the percentage of hemolysis at tested concentrations. All tests were done in triplicate.

For data set [3], the system named is Micrococcus luteus NCIMB 13267. It counts as cell-based. The method, then:
(§2) MICs were determined by broth microdilution on Pseudomonas aeruginosa ATCC 27853, Escherichia coli K12, Staphylococcus aureus ATCC 25723, Micrococcus luteus NCIMB 13267, and Bacillus subtilis ATCC 6633 according to the Clinical and Laboratory Standards Institute. Typically, 100 μl of 0.5–1 × 10^6 cfu/ml of each bacterium in Mueller-Hinton medium broth (Oxoid) was incubated in 96-well microtiter plates with 100 μl of serial 2-fold dilutions of the peptides (from 100 to 0 μM) at 37 °C on a three-dimensional orbital shaker. The absorbance was measured after peptide addition at 600 nm using a Victor 2 plate reader (PerkinElmer Life Sciences). MICs were defined as the lowest peptide concentration after 24 h at 37 °C. All tests were done in triplicate.

The test system of data set [4] is Bacillus subtilis ATCC 6633. It counts as cell-based. Here is the method: as §2
In data set [5] the test system is Escherichia coli K12. It counts as cell-based. The method, then:
as §2

Data set [6] has as its system Pseudomonas aeruginosa ATCC 27853. Format: cell-based. The method, then:
as §2

For data set [7], the system named is cBt. Briefly: Isothermal titration calorimetry of anti-cBt into cBt. Format: binding. Conditions: ITC, 20 °C. The method, then:
Measurements were obtained using a Microcal VP-isothermal titration calorimeter and a calorimetric cell (initial volume 1.46 ml) with a 260-s equilibration time and a 120-s initial delay after each addition. The titrations were performed at 20 °C with stirring until no further enthalpy changes were observed. Binding isotherms were recorded for cBt (30 μM) following the injection of anti-cBt (2 μl aliquots, 1.4 mM) into the cell. The observed heats were corrected for dilution effects by titrating peptide solutions, as appropriate, into the buffer and using the heat of last injections due to negligible differences between the first and last injections. All the data were corrected for the volume of the added titrant and analyzed by proprietary software (Microcal Origin 7) using a one-site binding model to allow for the determination of association constants (Ka), changes in enthalpy (ΔH) and enthropy (ΔS). Each experiment was performed in triplicate.

In data set [8] the test system is S. aureus (ATCC6538). It counts as cell-based, Staphylococcus aureus.
Data set [9] relates to E. coli. Kind of data set: Gram stain assay after overnight incubation with peptide. Format: cell-based, Escherichia coli. Conditions: incubated with peptide for 16 h, optical microscopy; anti-cBt:cBt 10:1 (100:10 μM). The method, then: as §1
Data set [10] concerns S. aureus (ATCC 25723). Format: cell-based. Here is the method:
S. aureus (ATCC 25723) culture (1 ml) was centrifuged to give a cell pellet, which was washed twice with 10 mM phosphate buffer, pH 7.4, before being reconstituted in phosphate buffer to give A600 nm = 0.008. 1 ml of the solution was dispensed in a 2-well glass chamber (LabTek) with diluted (1/500) propidium iodide (1 mg/ml, from Invitrogen). The chambers with surface-settled bacteria (60 min) were mounted on a confocal microscope (Olympus) equipped with an incubation chamber at 37 °C. Propidium iodide fluorescence emission was monitored at 625 nm for 60 min (three frames/min) using an appropriate filter after the addition of peptide (1 ml). Recorded images (XYZ) were analyzed using Fiji software to plot the number of fluorescent (stain-dead) cells as a function of time.

Setting [11] is: human erythrocytes 10% (v/v) in PBS pH 7.2, 1 h, room temperature, A550, 50% cell death compared with untreated cells, triplicate.
The mark [12] stands for this setting: broth microdilution, Mueller-Hinton broth, 24 h, 37 °C, A600, triplicate.

“EAQNLEKEIAALEQAIQGLEKEIPALAQQIQALEL-NH2 [Anti-cBt]”: the “effect on P. aeruginosa cell growth, Gram stain” value in [1] is given as “No obvious effects”. Moreover, the “HE (LC50)” value in data set [2] (setting [11]) was “≫250 μM”. Moreover, the “Minimum inhibitory concentration (MIC) M. luteus (NCIMB 13267)” value in [3] (setting [12]) is more than 200 µM. Besides, the “Minimum inhibitory concentration (MIC) B. subtilis (ATCC6633)” value in [4] (setting [12]) was more than 200 µM. Moreover, in data set [5] (setting [12]), the “Minimum inhibitory concentration (MIC) E. coli (K12)” value is more than 200 µM. Also, in data set [6] (setting [12]), the “Minimum inhibitory concentration (MIC) P. aeruginosa (ATCC27853)” value is more than 200 µM. Further, the “association (binding) constant (Ka)” value in [7] (anti-cBt (1.4 mM) injected into cBt (30 μM), one-site binding model, triplicate) is reported as 2.8 ± 0.2 × 10^6 M^−1. Also, the ΔG of binding in [7] (anti-cBt into cBt (30 μM)) is -7.8 kcal/mol. Besides, the “binding enthalpy (ΔH)” value in [7] (anti-cBt into cBt (30 μM), endothermic) was 9.7 kcal/mol. Also, the “Minimum inhibitory concentration (MIC) S. aureus (ATCC6538)” value in [8] (setting [12]) is more than 200 µM. In addition, the “effect on E. coli cell growth, Gram stain” value in data set [9] was “No obvious effects”. Moreover, in data set [10] (stain-dead S. aureus, propidium iodide, 37 °C), the “effect on killing of S. aureus at concentrations >100 μM” value was “No effects”. The “killing rate at higher concentrations (>250 μM)” value in data set [10] (stain-dead S. aureus, cBt at MIC after 1 h = 100%) is recorded as 10%.

As for “GEFAQFEQEAQSLEQELSQLEQQLESL-NH2 [Anti-b27]”, the “HE (LC50)” value in data set [2] (pH 7.2) was “≫250 μM”. The “Minimum inhibitory concentration (MIC) M. luteus (NCIMB 13267)” value in data set [3] (NCIMB 13267, 24 h) is more than 200 µM. Moreover, in data set [4] (ATCC 6633, 24 h), the “Minimum inhibitory concentration (MIC) B. subtilis (ATCC6633)” value is more than 200 µM. In addition, the “Minimum inhibitory concentration (MIC) E. coli (K12)” value in data set [5] (K12, 24 h) is more than 200 µM. The “Minimum inhibitory concentration (MIC) P. aeruginosa (ATCC27853)” value in data set [6] (ATCC 27853, 24 h) is more than 200 µM. The “Minimum inhibitory concentration (MIC) S. aureus (ATCC6538)” value in [8] (ATCC6538, 24 h) is more than 200 µM.

In the case of “GRFKRFRKKFKKLFKKLSPVIPLLHLG-NH2 [b27, bovine myeloid antimicrobial peptide-27, reference compound]”, the “HE (LC50)” value in [2] (pH 7.2) is given as “≫250 μM”. Also, in [3] (NCIMB 13267, 24 h), the “Minimum inhibitory concentration (MIC) M. luteus (NCIMB 13267)” value was determined as 0.74 ± 0.33 µM. Moreover, the “Minimum inhibitory concentration (MIC) B. subtilis (ATCC6633)” value in data set [4] (ATCC 6633, 24 h) was found to be 0.78 ± 0.01 µM. Further, in data set [5] (K12, 24 h), the “Minimum inhibitory concentration (MIC) E. coli (K12)” value is 3.13 ± 0.43 µM. Further, the “Minimum inhibitory concentration (MIC) P. aeruginosa (ATCC27853)” value in [6] (ATCC 27853, 24 h) turned out to be 4.51 ± 1.56 µM. The “Minimum inhibitory concentration (MIC) S. aureus (ATCC6538)” value in data set [8] (ATCC6538, 24 h) was more than 100 µM.

Regarding “KWKVFKKIEKMGRNIRNGIVKAGPAIAVLGEAKAL-NH2 (C-terminus assumed) [cB, cecropin B, reference compound]”, in [2] (setting [11]), the “HE (LC50)” value was “≫250 μM”. Also, the “Minimum inhibitory concentration (MIC) M. luteus (NCIMB 13267)” value in data set [3] (NCIMB 13267, 24 h) was 0.46 ± 0.20 µM. For the same substance, the “Minimum inhibitory concentration (MIC) B. subtilis (ATCC6633)” value in [4] (ATCC 6633, 24 h) is 50.7 ± 0.10 µM. Also, the “Minimum inhibitory concentration (MIC) E. coli (K12)” value in data set [5] (K12, 24 h) came to 0.62 ± 0.01 µM. In addition, the “Minimum inhibitory concentration (MIC) P. aeruginosa (ATCC27853)” value in data set [6] (ATCC 27853, 24 h) was 1.56 ± 0.01 µM. Further, the “Minimum inhibitory concentration (MIC) S. aureus (ATCC6538)” value in data set [8] (ATCC6538, 24 h) was more than 100 µM. For the same substance, the “killing rate in the first 30 min” value in [10] (ATCC 25723, 1 h, 100 μM, pH 7.4) is approximately 60%.
